From patent publication US11053226B2, “KRAS G12C inhibitors and methods of using the same” (Amgen Inc., priority 2018, dated 2021) come the findings set out here.

The test system of assay [1] is Phosphorylation of ERK1/2 in A549 cells. As to the kind of experiment: Phospho-ERK1/2 MSD Assay (A549). The format is cell-based. The following applies: Homo sapiens.
Assay [2] addresses GDP-bound KRAS protein (aa 1-169), containing both G12C and C118A amino acid substitutions (Homo sapiens (Human), UniProt P01116, C118A/G12C). As to the kind of experiment: Coupled Nucleotide Exchange Assay. The format is biochemical. As to the method: For compounds in Table 9, the following assay conditions were employed:
Coupled Nucleotide Exchange Assay:
The assay plates were then read on a PerkinElmer EnVision Multilabel Reader, using AlphaScreen® technology, and data were analyzed using a 4-parameter logistic model to calculate IC50 values.

Assay [3] concerns Phosphorylation of ERK1/2 in MIA PaCa-2 cells. The experiment in a line: Phospho-ERK1/2 MSD Assay. The format is cell-based. Particulars: Homo sapiens, MiaPaCa-2 cells.
Where [4] appears, read: read-out: pERK IC50 (4 h), 4 h compound treatment.
Where [5] appears, read: read-out: Coupled Exchange IC50 (2 h), 2 h compound pre-incubation.
The mark [6] stands for this setting: read-out: Coupled Exchange IC50 (20 h), 20 h compound pre-incubation.
[7] abbreviates: MIA PaCa-2, read-out: pERK IC50 (4 h), 4 h compound treatment.
The mark [8] stands for this setting: read-out: Coupled Exchange IC50 (5 min), 5 min compound pre-incubation.
Setting [9] is: A549, 4 h, read-out: pERK IC50 (4 h, A549), 4 h compound treatment.
The mark [10] stands for this setting: MIA PaCa-2, 4 h, read-out: pERK IC50 (4 h, MiaPaCa-2), 4 h compound treatment.

The structures appear in SMILES notation. pIC50: −log10 of the molar value. Read-outs that look alike come from different tables or passages of the source.

GDP-bound KRAS protein (aa 1-169), containing both G12C and C118A amino acid substitutions, sequence (P01116 other isoform, or with tags, fused parts or gaps G12C/C118A): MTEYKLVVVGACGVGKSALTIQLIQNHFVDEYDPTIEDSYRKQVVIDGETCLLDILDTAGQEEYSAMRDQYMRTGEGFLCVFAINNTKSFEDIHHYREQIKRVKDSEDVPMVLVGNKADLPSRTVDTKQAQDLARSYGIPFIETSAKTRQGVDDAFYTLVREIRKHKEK

One may read the pIC50 as the negative decadic logarithm of the IC50, by convention in mol/L. For `C=CC(=O)N1CC(NC(=O)Cn2cc(-c3ccc(F)cc3F)c3cc(Br)ccc32)C1` [Example 137], the pIC50 was 4.78 in assay [1] (setting [4]), 5.16 in assay [2] (setting [5]), 5.95 in assay [2] (setting [6]) and 4.39 in assay [3] (setting [7]).
With `C=CC(=O)N1CC(NC(=O)Cn2c(C)c(-c3ccccc3-c3ccccc3)c3cc(Cl)ccc32)C1` [Example 67], the pIC50 is less than 4.00 in assay [1] (setting [4]); 5.41 in assay [2] (setting [8]); 6.08 in assay [2] (setting [5]); 6.62 in assay [2] (setting [6]); 5.06 in assay [3] (setting [7]).
As to `C=CC(=O)N1CC(NC(=O)Cn2cc(-c3ccccc3C)c3cc(Cl)ccc32)C1` [Example 78], the pIC50 in assay [1] (setting [4]) was less than 4.00; in assay [2] (setting [8]) it was 4.48; in assay [2] (setting [5]), 5.26; in assay [2] (setting [6]) it was 5.92; in assay [3] (setting [7]), 4.93.
With `C=CC(=O)N1CC(NC(=O)Cn2c(C)c(-c3ccccc3C3CC3)c3cc(Cl)ccc32)C1` [Example 36], the pIC50 was less than 4.48 in assay [1] (setting [4]), 6.15 in assay [2] (setting [5]), 6.70 in assay [2] (setting [6]) and 5.48 in assay [3] (setting [7]).
Regarding `C=CC(=O)N1CC(N(C)C(=O)Cn2c(CC)c(C(=O)N3CCN(c4ccc(C#N)cn4)C[C@H]3C)c3cc(Cl)cc(C)c32)C1` [Example 4-6, 2-(5-Chloro-3-(((2R)-4-(5-cyano-2-pyridinyl)-2-methyl-1-piperazinyl)carbonyl)-2-ethyl-7-methyl-1H-indol-1-yl)-N-methyl-N-(1-(2-propenoyl)-3-azetidinyl)acetamide], the pIC50 in assay [1] (setting [9]) was 4.06; in assay [2] (setting [5]), 6.89; in assay [3] (setting [10]), 6.14.
On the same counts, the results for `C=CC(=O)N1CC(NC(=O)Cn2c(CC3CC3)c(C(=O)N3CCc4c(cccc4OC)C3)c3cc(Cl)cc(C)c32)C1` [Example 1-5, 2-(5-Chloro-2-(cyclopropylmethyl)-3-((5-methoxy-3,4-dihydro-2(1H)-isoquinolinyl)carbonyl)-7-methyl-1H-indol-1-yl)-N-(1-(2-propenoyl)-3-azetidinyl)acetamide] are less than 4.00, 7.10 and 6.82.
As to `C=CC(=O)N1CC(N(C)C(=O)Cn2c(C3CC3)c(C(=O)N3CCc4c(cccc4OC)C3)c3cc(Cl)cc(C)c32)C1` [Example 4-3, 2-(5-Chloro-2-cyclopropyl-3-((5-methoxy-3,4-dihydro-2(1H)-isoquinolinyl)carbonyl)-7-methyl-1H-indol-1-yl)-N-methyl-N-(1-(2-propenoyl)-3-azetidinyl)acetamide], the pIC50 in assay [1] (setting [9]) was 4.13; in assay [2] (setting [5]), 6.92; in assay [3] (setting [10]), 6.82.
As to `C=CC(=O)N1CC(NC(=O)Cn2c(C)c(C(=O)N3CCc4c(C)cc(Br)cc4C3)c3cc(Br)ccc32)C1` [Example 51], the pIC50 is less than 4.00 in assay [1] (setting [9]), 6.12 in assay [2] (setting [5]), 6.74 in assay [2] (setting [6]) and 5.32 in assay [3] (setting [10]).
As to `C=CC(=O)N1CC(NC(=O)Cn2c(C)c(C(=O)N3[C@H](C)Cc4c(OC)cccc4[C@H]3C)c3cc(Br)cc(C)c32)C1` (stereo in doubt) [Example 2-3], the results for the pIC50 in assay [1] (setting [9]), in assay [2] (setting [5]) and in assay [3] (setting [10]) were 4.29, 6.80 and 6.17, respectively.
Taken in the same sequence, the figures for `C=CC(=O)N1CC(NC(=O)Cn2c(C3CC3)c(C(=O)N3CCN(c4ccc(C#N)cn4)CC3)c3cc(Cl)cc(C)c32)C1` [Example 14] were less than 4.00, 6.24 and 5.77.
Turning to `C=CC(=O)N1CC(NC(=O)Cn2cc(Cl)c3cc(Br)ccc32)C1` [Example 154], the pIC50 was less than 4.00 in assay [1] (setting [4]); 4.25 in assay [2] (setting [8]); 5.29 in assay [2] (setting [5]); 6.07 in assay [2] (setting [6]); 4.28 in assay [3] (setting [7]).
In the case of `C=CC(=O)N1CC(NC(=O)Cn2cc(-c3c(O)cccc3F)c3cc(Cl)ccc32)C1` [Example 144], the pIC50 is less than 4.00 in assay [1] (setting [4]), 5.42 in assay [2] (setting [5]), 6.12 in assay [2] (setting [6]) and 4.33 in assay [3] (setting [7]).
For the compound `C=CC(=O)N1CC(NC(=O)Cn2c(C)c(-c3ccccc3OC)c3cc(Cl)ccc32)C1` [Example 125], the figures for the pIC50 in assay [1] (setting [4]), in assay [2] (setting [5]) and in assay [3] (setting [7]) were less than 4.00, 5.56 and 4.47, respectively.
On to `C=CC(=O)N1CC(N(C)C(=O)Cn2c(C3CC3)c(C(=O)N3CCN(c4ccc(C#N)cn4)CC3)c3cc(Cl)cc(C)c32)C1` [Example 19], for which the negative logarithm of the IC50 (pIC50) in assay [1] (setting [9]) is less than 4.00; in assay [2] (setting [5]), 6.21; in assay [3] (setting [10]), 5.73.
Regarding `C=CC(=O)N1CC(NC(=O)Cn2c(C)c(C(=O)N3Cc4ccccc4CC3C)c3cc(Br)cc(C)c32)C1` (stereo not drawn) [Example 39], the pIC50 in assay [1] (setting [9]) was 4.22; in assay [2] (setting [5]), 6.48; in assay [3] (setting [10]), 5.47.
Turning to `C=CC(=O)N1CC(NC(=O)Cn2c(CC)c(C(=O)N3CCc4c(ccnc4OC)C3)c3cc(Cl)cc(C)c32)C1` [Example 1-1, 2-(5-Chloro-2-ethyl-3-((5-methoxy-3,4-dihydro-2,6-naphthyridin-2(1H)-yl)carbonyl)-7-methyl-1H-indol-1-yl)-N-(1-(2-propenoyl)-3-azetidinyl)acetamide], the pIC50 in assay [1] (setting [9]) was less than 4.00; in assay [3] (setting [10]), 7.05. Besides, the “Coupled Exchange IC50 (5 min)” value in assay [2] (5 min compound pre-incubation) was determined as 0.20 µM. In addition, the “Coupled Exchange IC50 (2 h)” value in assay [2] (2 h compound pre-incubation) was found to be 0.07 µM.
Turning to `C=CC(=O)N1CC(NC(=O)Cn2cc(C(=O)NCCc3ccc(Cl)cc3Cl)c3cc(Cl)cc(Cl)c32)C1` [Example 178], the pIC50 in assay [1] (setting [9]) was less than 4.00; in assay [2] (setting [5]), 6.20; in assay [2] (setting [6]) it was 6.66; in assay [3] (setting [10]), less than 4.00.
